In patent US20080125424A1, “Derivatives of urea and related diamines, methods for their manufacture, and uses therefor” (priority 2006, published 2008):

Biological target: T1, human parathyroid cell Ca2+ receptor (hPCaR) (Homo sapiens, UniProt P41180)
T1 construct: expressed in transfected cells
T1 sequence (P41180 20-1078): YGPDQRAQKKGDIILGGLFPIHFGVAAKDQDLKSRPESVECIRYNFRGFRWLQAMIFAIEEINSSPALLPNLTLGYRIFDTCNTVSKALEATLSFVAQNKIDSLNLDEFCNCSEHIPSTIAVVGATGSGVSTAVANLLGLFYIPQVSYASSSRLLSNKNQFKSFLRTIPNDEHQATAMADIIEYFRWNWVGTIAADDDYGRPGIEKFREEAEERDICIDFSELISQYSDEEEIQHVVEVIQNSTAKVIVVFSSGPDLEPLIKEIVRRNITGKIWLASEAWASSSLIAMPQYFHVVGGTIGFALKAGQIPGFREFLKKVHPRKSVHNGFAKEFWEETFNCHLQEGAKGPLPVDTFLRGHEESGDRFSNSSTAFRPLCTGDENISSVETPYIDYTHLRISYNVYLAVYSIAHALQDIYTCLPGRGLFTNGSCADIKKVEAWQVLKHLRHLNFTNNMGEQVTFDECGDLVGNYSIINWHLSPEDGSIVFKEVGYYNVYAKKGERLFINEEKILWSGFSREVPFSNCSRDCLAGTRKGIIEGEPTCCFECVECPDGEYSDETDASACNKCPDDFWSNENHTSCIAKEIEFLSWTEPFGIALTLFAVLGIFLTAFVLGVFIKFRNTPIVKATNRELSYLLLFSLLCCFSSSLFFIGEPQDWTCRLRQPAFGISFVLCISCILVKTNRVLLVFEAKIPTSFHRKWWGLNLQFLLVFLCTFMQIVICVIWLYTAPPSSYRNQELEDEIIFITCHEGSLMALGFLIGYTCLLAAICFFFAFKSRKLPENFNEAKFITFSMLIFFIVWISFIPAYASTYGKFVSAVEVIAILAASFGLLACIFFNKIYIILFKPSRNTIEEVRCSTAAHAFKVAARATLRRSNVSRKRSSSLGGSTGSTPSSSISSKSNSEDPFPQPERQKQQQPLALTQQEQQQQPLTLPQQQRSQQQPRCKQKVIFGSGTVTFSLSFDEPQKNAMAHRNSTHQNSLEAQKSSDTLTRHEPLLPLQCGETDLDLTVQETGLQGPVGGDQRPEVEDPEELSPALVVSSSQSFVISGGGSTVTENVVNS
Test: [Ca2+]i fluorescence assay in HEK 293 4.0-7 cells expressing hPCaR
Type: cell-based
Conditions: buffer with 1 mM CaCl2
Method: The activities of the compounds of the present invention on calcium receptors were measured. In one embodiment, the measurement was performed in accordance with the method described in Example 4 of Nemeth et al., PCT/US95/13704 (International Publication No. WO96/12697) herein incorporated by reference.
A 4.0-kb NotI-HindIII fragment of the human parathyroid cell Ca^2+ receptor (hPCaR) cDNA was subcloned into the mammalian expression vector pCEP4 (Invitrogen) containing the hygromycin-resistant gene as a selectable marker. This plasmid was transfected into HEK 293 cells by calcium phosphate precipitation. Transfected cells were grown in Dulbecco's modified Eagle's medium containing 10% fetal bovine serum and hygromycin (200 μg/mL). Hygromycin-resistant colonies were subcloned and assayed for hPCaR mRNA by solution hybridization using a ^32P-labeled RNA probe complementary to the (4.0 kb) hPCaR sequence (Garrett, et al., J. Biol. Chem. 270, 12919-12925 (1995)). Clone 7 was used to assess the effects of compounds on [Ca^2+]i. This stably transfected cell line was termed HEK 293 4.0-7. For measurements of [Ca^2+]i, the cells were recovered from tissue culture flasks by brief treatment with Versene (Invitrogen; Containing 0.2 g/L EDTA.4Na in phosphate-buffered saline) and then seeded in collagen coated 384-well plates (BD Biosciences) at 20K cells per well in the growth media (same as above). Cells were grown in 37c TC incubator overnight. Then, the media was discarded and cells were loaded with 1× dye from Ca^2+ Assay Kit I (BD Biosciences) in parathyroid cell buffer (126 mM NaCl, 4 mM KCl, 1 mM MgSO4, 0.7 mM K2HPO4/KH2PO4, 20 mM HEPES.NaOH (pH 7.45)) containing 0.5% BSA and 1 mM CaCl2. Cells were loaded at room temperature for 90 minutes. Each test compound was added to the cells and the fluorescence was recorded by using excitation and emission wavelengths of 485 and 530 nm, respectively.

Compound | EC50
CC(C)(C)OC(=O)N1CCN(C(=O)CCCN(CCC(c2ccccc2)c2ccccc2)C(=O)Nc2nc(-c3ccccc3)cs2)CC1 [Example 96, tert-butyl 4-(4-(1-(3,3-diphenylpropyl)-3-(4-phenylthiazol-2-yl)ureido)butanoyl)piperazine-1-carboxylate] | 100 to 1000 nM
O=C(CCCN(CCC(c1ccccc1)c1ccccc1)C(=O)Nc1nc2ccccc2s1)N[C@H]1CCCNC1 [Example 74, (S)-3-(benzo[d]thiazol-2-yl)-1-(3,3-diphenylpropyl)-1-(4-oxo-4-(piperidin-3-ylamino)butyl)urea] | < 100 nM
O=C(Nc1nc2ccccc2s1)N(CCNC1CCOCC1)CCC(c1ccccc1)c1ccccc1 [Example 156, 3-Benzothiazol-2-yl-1-(3,3-diphenyl-propyl)-1-[2-(tetrahydro-pyran-4-ylamino)-ethyl]-urea] | 1000 to 5000 nM
O=C1CC[C@H](NCCN(CCC(c2ccccc2)c2ccccc2)C(=O)Nc2nc(-c3ccccc3)c(Cl)s2)CN1 [Example 142, (S)-3-(5-chloro-4-phenylthiazol-2-yl)-1-(3,3-diphenylpropyl)-1-(2-(6-oxopiperidin-3-ylamino)ethyl)urea] | < 100 nM
CS(=O)(=O)Nc1ccc(-c2nc(NC(=O)N(CCN[C@H]3CCCNC3)CCC(c3ccccc3)c3ccccc3)sc2Cl)cc1 [Example 141, (S)-3-(5-chloro-4-(4-(methylsulfonamido)phenyl)thiazol-2-yl)-1-(3,3-diphenylpropyl)-1-(2-(piperidin-3-ylamino)ethyl)urea] | < 100 nM
O=C(CCCN(CCC(c1ccccc1)c1ccccc1)C(=O)Nc1nc2ccccc2s1)N1CCCCC1 [Example 105, 3-(benzo[d]thiazol-2-yl)-1-(3,3-diphenylpropyl)-1-(4-oxo-4-(piperidin-1-yl)butyl)urea] | 100 to 1000 nM
O=C(CCCN(CCC(c1ccccc1)c1ccccc1)C(=O)Nc1nc(-c2ccccc2)cs1)N[C@H]1CCCNC1 [Example 78, (S)-1-(3,3-diphenylpropyl)-1-(4-oxo-4-(piperidin-3-ylamino)butyl)-3-(4-phenylthiazol-2-yl)urea] | < 100 nM
CC(CN(CCC(c1ccccc1)c1ccccc1)C(=O)Nc1nc(-c2ccccc2)cs1)C(=O)O (stereo not shown) [Example 69, 3-(1-(3,3-diphenylpropyl)-3-(4-phenylthiazol-2-yl)ureido)-2-methylpropanoic acid] | < 100 nM
COC(CNCCN(CCC(c1ccccc1)c1ccccc1)C(=O)Nc1nc2ccccc2s1)OC [Example 153, 3-Benzothiazol-2-yl-1-[2-(2,2-dimethoxy-ethylamino)-ethyl]-1-(3,3-diphenyl-propyl)urea] | 100 to 1000 nM
CN(C)C(=O)N1CCN(C(=O)CCCN(CCC(c2ccccc2)c2ccccc2)C(=O)Nc2nc3ccccc3s2)CC1 [Example 87, 3-(benzo[d]thiazol-2-yl)-1-(4-(4-(dimethylcarbamoyl)piperazin-1-yl)-4-oxobutyl)-1-(3,3-diphenylpropyl)urea] | < 100 nM
O=C(CCCN(CCC(c1ccccc1)c1ccccc1)C(=O)Nc1nc(-c2ccccc2)cs1)N[C@@H]1CCCNC1 [Example 76, (R)-1-(3,3-diphenylpropyl)-1-(4-oxo-4-(piperidin-3-ylamino)butyl)-3-(4-phenylthiazol-2-yl)urea] | < 100 nM
C[C@H]1CN(C(=O)CCCN(CCC(c2ccccc2)c2ccccc2)C(=O)Nc2nc(-c3ccccc3)cs2)CCN1 [Example 90, (S)-1-(3,3-diphenylpropyl)-1-(4-(3-methylpiperazin-1-yl)-4-oxobutyl)-3-(4-phenylthiazol-2-yl)urea] | 100 to 1000 nM
CCOC(=O)CCCN(CCC(c1ccccc1)c1ccccc1)C(=O)Nc1nc2ccccc2s1 [Example 116, ethyl 4-(3-(benzo[d]thiazol-2-yl)-1-(3,3-diphenylpropyl)ureido)butanoate] | 100 to 1000 nM
CS(=O)(=O)Nc1ccc(-c2nc(NC(=O)N(CCCC(=O)O)CCC(c3ccccc3)c3ccccc3)sc2Cl)cc1 [Example 73, 4-(3-(5-chloro-4-(4-(methylsulfonamido)phenyl)thiazol-2-yl)-1-(3,3-diphenylpropyl)ureido)butanoic acid] | < 100 nM
C[C@H]1CN(C(=O)CCN(CCC(c2ccccc2)c2ccccc2)C(=O)Nc2nc3ccccc3s2)CCN1 [Example 115, (S)-3-(benzo[d]thiazol-2-yl)-1-(3,3-diphenylpropyl)-1-(3-(3-methylpiperazin-1-yl)-3-oxopropyl)urea] | 100 to 1000 nM
O=C1CC[C@@H](NCCN(CCC(c2ccccc2)c2ccccc2)C(=O)Nc2nc3ccccc3s2)CN1 [Example 144, (R)-3-(benzo[d]thiazol-2-yl)-1-(3,3-diphenylpropyl)-1-(2-(6-oxopiperidin-3-ylamino)ethyl)urea] | < 100 nM
CC(C)N1CCN(C(=O)CCCN(CCC(c2ccccc2)c2ccccc2)C(=O)Nc2nc3ccccc3s2)CC1 [Example 118, 3-(benzo[d]thiazol-2-yl)-1-(3,3-diphenylpropyl)-1-(4-(4-isopropylpiperazin-1-yl)-4-oxobutyl)urea] | 100 to 1000 nM
CS(=O)(=O)Nc1ccc(-c2csc(NC(=O)N(CCCC(N)=O)CCC(c3ccccc3)c3ccccc3)n2)cc1 [Example 68, 1-(4-amino-4-oxobutyl)-1-(3,3-diphenylpropyl)-3-(4-(4-(methylsulfonamido)phenyl)thiazol-2-yl)urea] | < 100 nM
CS(=O)(=O)c1ccc(-c2csc(NC(=O)N(CCC(=O)O)CCC(c3ccccc3)c3ccccc3)n2)cc1 [Example 119, 3-(1-(3,3-diphenylpropyl)-3-(4-(4-(methylsulfonyl)phenyl)thiazol-2-yl)ureido)propanoic acid] | 100 to 1000 nM
O=C(CCN(CCC(c1ccccc1)c1ccccc1)C(=O)Nc1nc(-c2ccccc2)cs1)N[C@H]1CCCNC1 [Example 93, (S)-1-(3,3-diphenylpropyl)-1-(3-oxo-3-(piperidin-3-ylamino)propyl)-3-(4-phenylthiazol-2-yl)urea] | 100 to 1000 nM
C[C@@H]1CN(C(=O)CCCN(CCC(c2ccccc2)c2ccccc2)C(=O)Nc2nc(-c3ccccc3)cs2)CCN1 [Example 99, (R)-1-(3,3-diphenylpropyl)-1-(4-(3-methylpiperazin-1-yl)-4-oxobutyl)-3-(4-phenylthiazol-2-yl)urea] | 100 to 1000 nM
NS(=O)(=O)c1ccc(-c2csc(NC(=O)N(CCCC(=O)O)CCC(c3ccccc3)c3ccccc3)n2)cc1 [Example 124] | < 100 nM
CS(=O)(=O)Nc1ccc(-c2nc(NC(=O)N(CCC(=O)O)CCC(c3ccccc3)c3ccccc3)sc2Cl)cc1 [Example 98, 3-(3-(5-chloro-4-(4-(methylsulfonamido)phenyl)thiazol-2-yl)-1-(3,3-diphenylpropyl)ureido)propanoic acid] | 100 to 1000 nM
O=C(CCCN(CCC(c1ccccc1)c1ccccc1)C(=O)Nc1nc2ccccc2s1)NCc1ccccc1 [Example 86, 3-(benzo[d]thiazol-2-yl)-1-(4-(benzylamino)-4-oxobutyl)-1-(3,3-diphenylpropyl)urea] | < 100 nM
O=C(CCCN(CCC(c1ccccc1)c1ccccc1)C(=O)Nc1nc2ccccc2s1)NC1CCCCC1 [Example 97, 3-(benzo[d]thiazol-2-yl)-1-(4-(cyclohexylamino)-4-oxobutyl)-1-(3,3-diphenylpropyl)urea] | 100 to 1000 nM
